# Assay results published in the supplement of paper PMC11208160.
# Assay: recombinant UMI read abundance after kanamycin selection (control-corrected) (log10(CPM+1)); higher = more efficient recombination; extreme values may be limits of the assay; sequences stand for … in AGTGCAGAGAAAATCGGCCAGTTTTCTCTGCCTGCAGTCCGCATGCCGTGGGACCCCTTGGGTTCTAACCTGTTGCCTAGATTTATGCAGCGGACTGCCTTTCTCCCAAAGTGATAAACCGG…AGGTTGGTTTCACT; site = the 11-nt donor
# Method in brief: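 In Escherichia coli, a pool of donor and donor-binding-loop pairs, each with a 12-nt UMI, was tested for the IS621 bridge recombinase. Plating was on IPTG (0.07 mM) plus kanamycin, or without selection, in two replicates. Recombinant UMIs were amplified by PCR across the donor–target junction and sequenced, and counts were reported as log10(CPM+1) after averaging and control-derived scaling.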
# 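Further: IS621 bridge recombinase in Escherichia coli cells against a fixed T5 target plasmid.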
row,Sequence,recombinant UMI read abundance (log10)
1,GGTAAGTCATGGACCGGTTTTCCCGGTAATCCGTATTTGTT (site GGTATGTCTAA),0.00986
2,GGTAATCCATGGACCGGTTTTCCCGGTAATCCGTATTTGAA (site GGAAATCCTTT),0.00275
3,GGTAATCCATGGACCGGTTTTCCCGGTAATCCGTATTTGAA (site GGCAATCCTTT),0.58
4,GGTAATCCATGGACCGGTTTTCCCGGTAATCCGTATTTGAA (site GGGAATCCTTT),0.00622
5,GGTAATCCATGGACCGGTTTTCCCGGTAATCCGTATTTGAA (site GGTAATCCTTT),0.27
6,GGTACATCATGGACCGGTTTTCCCGGTAATCCGTATTTGAG (site GGTACATCTCT),0.66
7,GGTACGACATGGACCGGTTTTCCCGGTAATCCGTATTTGTT (site GGTACGACTAA),0.444
8,GGTACGACATGGACCGGTTTTCCCGGTAATCCGTATTTGTT (site GGTACGCCTAA),0.0177
9,GGTACGACATGGACCGGTTTTCCCGGTAATCCGTATTTGTT (site GGTACGGCTAA),0.0185
10,GGTACGACATGGACCGGTTTTCCCGGTAATCCGTATTTGTT (site GGTACGTCTAA),0.0179
11,GGTACGTCATGGACCGGTTTTCCCGGTAATCCGTATTTGTC (site GGTACGTCTAA),0.0158
12,GGTACGTCATGGACCGGTTTTCCCGGTAATCCGTATTTGTC (site GGTACGTCTCA),0.0113
13,GGTACGTCATGGACCGGTTTTCCCGGTAATCCGTATTTGTC (site GGTACGTCTGA),0.0103
14,GGTACGTCATGGACCGGTTTTCCCGGTAATCCGTATTTGTC (site GGTACGTCTTA),0.0125
15,GGTATGCCATGGACCGGTTTTCCCGGTAATCCGTATTTGAC (site GGTATGCCTGT),0
16,GGTATTTCATGGACCGGTTTTCCCGGTAATCCGTATTTGAA (site GGTATTTCTTT),0
17,GGTCAAGCATGGACCGGTTTTCCCGGTAATCCGTATTTGGC (site GGTCAAGCTGC),1.47
18,GGTCCATCATGGACCGGTTTTCCCGGTAATCCGTATTTGTA (site GGTCCAACTTA),0.016
19,GGTCCATCATGGACCGGTTTTCCCGGTAATCCGTATTTGTA (site GGTCCACCTTA),0.0104

row,Sequence,recombinant UMI read abundance (log10)
1,GGTCCATCATGGACCGGTTTTCCCGGTAATCCGTATTTGTA (site GGTCCAGCTTA),0.00308
2,GGTCCATCATGGACCGGTTTTCCCGGTAATCCGTATTTGTA (site GGTCCATCTTA),0.459
3,GGTCCCACATGGACCGGTTTTCCCGGTAATCCGTATTTGTA (site GGTCCAACTTA),0
4,GGTCCCACATGGACCGGTTTTCCCGGTAATCCGTATTTGTA (site GGTCCCACTTA),0.0202
5,GGTCCCACATGGACCGGTTTTCCCGGTAATCCGTATTTGTA (site GGTCCGACTTA),0.0061
6,GGTCCCACATGGACCGGTTTTCCCGGTAATCCGTATTTGTA (site GGTCCTACTTA),0.0287
7,GGTCGATCATGGACCGGTTTTCCCGGTAATCCGTATTTGCG (site GGTCGATCTCG),0.598
8,GGTCGTCCATGGACCGGTTTTCCCGGTAATCCGTATTTGTA (site GGTCGTCCTTA),0.0245
9,GGTCTAACATGGACCGGTTTTCCCGGTAATCCGTATTTGTA (site GGTCAAACTTA),0.0026
10,GGTCTAACATGGACCGGTTTTCCCGGTAATCCGTATTTGTA (site GGTCCAACTTA),0
11,GGTCTAACATGGACCGGTTTTCCCGGTAATCCGTATTTGTA (site GGTCGAACTTA),0.0128
12,GGTCTAACATGGACCGGTTTTCCCGGTAATCCGTATTTGTA (site GGTCTAACTTA),0.607
13,GGTCTACCATGGACCGGTTTTCCCGGTAATCCGTATTTGCA (site GGTCTACCTTG),0
14,GGTGCTGCATGGACCGGTTTTCCCGGTAATCCGTATTTGTG (site GGTGCTGCTCA),0.0597
15,GGTGGTGCATGGACCGGTTTTCCCGGTAATCCGTATTTGAC (site GGTGGTGCTGT),2.18
16,GGTGTGGCATGGACCGGTTTTCCCGGTAATCCGTATTTGGT (site GGAGTGGCTAC),0.128
17,GGTGTGGCATGGACCGGTTTTCCCGGTAATCCGTATTTGGT (site GGCGTGGCTAC),0.0168
18,GGTGTGGCATGGACCGGTTTTCCCGGTAATCCGTATTTGGT (site GGGGTGGCTAC),0.145
19,GGTGTGGCATGGACCGGTTTTCCCGGTAATCCGTATTTGGT (site GGTGTGGCTAC),0.636

row,Sequence,recombinant UMI read abundance (log10)
1,GGTGTTACATGGACCGGTTTTCCCGGTAATCCGTATTTGTT (site GGTGTTACTAA),0.51
2,GGTGTTCCATGGACCGGTTTTCCCGGTAATCCGTATTTGGC (site GGTGTTCCTGC),0
3,GGTGTTCCATGGACCGGTTTTCCCGGTAATCCGTATTTGTT (site GGTGTTCCTAA),0.00351
4,GGTTCCGCATGGACCGGTTTTCCCGGTAATCCGTATTTGCG (site GGTTCCGCTCG),0
5,GGTTCGTCATGGACCGGTTTTCCCGGTAATCCGTATTTGTT (site GGTACGTCTAA),0.0147
6,GGTTCGTCATGGACCGGTTTTCCCGGTAATCCGTATTTGTT (site GGTCCGTCTAA),0.0123
7,GGTTCGTCATGGACCGGTTTTCCCGGTAATCCGTATTTGTT (site GGTGCGTCTAA),0.00284
8,GGTTCGTCATGGACCGGTTTTCCCGGTAATCCGTATTTGTT (site GGTTCGTCTAA),0.351
9,GGTTTCACATGGACCGGTTTTCCCGGTAATCCGTATTTGTA (site GGTTTCACTTA),0.519
10,GTAAATCCATGGACCGGTTTTCCCGGTAATCCGTATTTGGG (site GTAAATCCTCC),0.325
11,GTAATAACATGGACCGGTTTTCCCGGTAATCCGTATTTGGG (site GTAATAACTCC),0.656
12,GTAATCTCATGGACCGGTTTTCCCGGTAATCCGTATTTGTA (site GTAATCTCTTA),2.83
13,GTACATGCATGGACCGGTTTTCCCGGTAATCCGTATTTGGT (site GTACATGCTAC),1.43
14,GTACATGCATGGACCGGTTTTCCCGGTAATCCGTATTTGGT (site GTCCATGCTAC),0.0463
15,GTACATGCATGGACCGGTTTTCCCGGTAATCCGTATTTGGT (site GTGCATGCTAC),0.0209
16,GTACATGCATGGACCGGTTTTCCCGGTAATCCGTATTTGGT (site GTTCATGCTAC),0.184
17,GTACATTCATGGACCGGTTTTCCCGGTAATCCGTATTTGTG (site GTACATTCTCA),2.5
18,GTACGTACATGGACCGGTTTTCCCGGTAATCCGTATTTGAC (site GTAAGTACTGT),0.00784
19,GTACGTACATGGACCGGTTTTCCCGGTAATCCGTATTTGAC (site GTACGTACTGT),2.51
